This is an account of results in patent US9315513B2, “Benzimidazole derivatives and their pharmaceutical compositions and uses” (XUANZHU PHARMA CO., LTD., priority 2010, dated 2016).

Structures are written as SMILES. “And” between values parts separate entries of the source, which are not always exact repeats. Identical values can stand only once. Counter-ions that a name gives are not always drawn. Like-named read-outs stand apart in the source and are kept apart here.

The test system of series [1] is reflux esophagitis in rats. The series can be described thus: Effects on reflux esophagitis in rats. The format is in vivo, Wistar rats. Also on record: Esophagitis index: scale not given here. The conditions noted are these: for Protection effect on reflux esophagitis in rats (conclusion): in comparison with the model group; for Esophagitis index: 6 rats per group, average ± SD. The protocol:
The rats were etherized, laparotomized, pylorus ligated, and ligated at the part between glandular stomach and rumen. After ligation, the drugs were immediately administered through duodenum, in which the groups of the test samples were administered with test samples in 20 mg/kg, the model group was administered with the same volume of solvent, and the abdomens were then closed. The rats were released to the fasting cage, subjected to fasting and water deprivation for 5 h and then executed by air embolism. The stomach and esophagus were taken out together, fixed with 1% formaldehyde in esophagus for 1 h, and then the injury of esophagus was observed.

In series [2] the test system is gastric acid in pylorus ligated rats. The series can be described thus: Inhibition effects on gastric acid in pylorus ligated rats. The conditions noted are these: for Inhibition effect on the gastric acid secretion in pylorus ligated rats (conclusion): in comparison with the solvent group. The class given is in vivo, Wistar rats. As for the experimental part: Experimental animals: six-week old clean Wistar rats, male, 140-180 g.
Experimental samples: part of the compounds of the present invention, which structural formula and chemical name are shown in Table 1. […] Before test, these compounds were dissolved with physiological saline.
Pylorus was ligated by passing a suture beneath gastric pylorus, the drugs were immediately administered through duodenum, in which the solvent group was administered with physiological saline in 2 mL/kg, […] The animals were executed after 6 h, laparotomized, esophagus was ligated near to diaphragmatic muscle, whole stomach was taken out, washed to remove blood, stomach contents were poured out, the acidity degree of gastric acid was tested with pH test paper, the stomach contents was then centrifuged at 3000 rpm for 10 min. The volume of the supernatant was metered, and 1 mL of the supernatant was titrated with 0.01 mol/L NaOH solution, phenolphthalein was used as indicator, the volume of NaOH was recorded, and the total acidity degree and total acid output of gastric juice were calculated. Gastric juice total acidity degree (mmol/L)=consumed volume of NaOH solution (mL)*0.01 mol/L (NaOH concentration)/1 mL (supernatant volume)*1000; 1 h total acid output (mmol/h)=total acidity degree (mmol/L)*gastric juice volume (mL)/6 h/1000.

Series [3] in a line: In vivo pharmacokinetic test in rats. The settings on record: for Vd / clearance / half-life: iv. Also on record: species or system Wistar rats. As for the experimental part:
Experimental animals: male Wistar rats, 6 rats/compound, body weight 180-220 g, purchased from Shandong University, certificate no.: SCXK ( ? ) 20090001.
Experimental samples: Compound 1, Compound 29 and Compound 30 of the present invention, each of them is prepared according to the methods of the above examples, and dissolved in physiological saline before test.
Administration: as for intravenous push (I.V), Compound 1, Compound 29, Compound 30 were administered in a dose of 5 mg/kg, and a volume of 2 mL/kg; as for intragastric administration (P.O), Compound 1, Compound 29, Compound 30 were administered in a dose of 5 mg/kg, and a volume of 2 mL/kg. The rats were fasted without water deprivation for […] administration, and fed after 4 hours from the administration.
Blood collection: 0 h, 0.083 h, 0.25 h, 0.5 h, 1 h, 2 h, 4 h, 8 h, 24 h, at each time point, about 150 μL of whole blood was collected, centrifuged at 4° C. and 8000 rpm for 6 min using a low-temperature high-speed centrifuge, the separated plasma was frozen and stored at −80° C. in a refrigerator.
Analysis of plasma samples: as for Compound 1, Compound 29, Compound 30, 50 μL of plasma was taken, added with 120 μL internal standard solution (Tolbutamide, 5 ng/mL MeOH solution), subjected to 1500 rpm vortex for 2 min, then centrifuged at 14000 rpm for 5 min, the supernatant was collected, and analyzed by using LC-MS/MS. Calculation formula: absolute bioavailability F %=[AUC]INF(PO)*Dose(IV)/[AUC]INF(IV)*Dose(PO)
Wherein, AUCINF represents area under drug-time curve0→∞; Cmax represents peak drug concentration in blood; Tmax represents a time for reaching peak drug concentration in blood; F % represents absolute bioavailability; CL represents clearance rate; Vss represents apparent volume of distribution; T1/2 represents half-life period.

Where [4] appears, read: male, Wistar, rat, in vivo, 5 mg/kg.
The mark [5] stands for this setting: male, Wistar, rat, in vivo, po, 5 mg/kg.
Where [6] appears, read: Table 4, 30 mg/kg through duodenum, 6 h.
Setting [7] is: Table 4, 30 mg/kg through duodenum, 6 h, SD in neighbouring cell.
[8] abbreviates: individual rats, 20 mg/kg through duodenum, 5 h, 20 mg/kg, female rats.
Setting [9] is: individual rats, 20 mg/kg through duodenum, 5 h, 20 mg/kg, male rats.
Where [10] appears, read: Table 3, 20 mg/kg through duodenum, 6 h after pylorus ligation.
Setting [11] is: Table 3, 20 mg/kg through duodenum, 6 h after pylorus ligation, average ± SD.

For orientation: Cmax means the maximum level reached in the sampled fluid or tissue. In general, Tmax refers to the time at which the peak concentration occurs. Broadly, the bioavailability is dose-corrected exposure relative to a reference, in per cent.

On to `COCCCOc1ccnc(C[S+]([O-])c2nc3cc4c(cc3[nH]2)OCCO4)c1C` (stereo not drawn) [Compound 6, 2-[[4-(3-methoxylpropoxy)-3-methylpyridin-2-yl]methylsulfinyl]-6,7-dihydro-1H-[1,4]dioxino[2,3-f]benzo[d]imidazole], for which the “Protection effect on reflux esophagitis in rats (conclusion)” value (from here on “Protection effect on reflux esophagitis”) in series [1] (20 mg/kg) is given as “no protection effect”. The “Inhibition effect on the gastric acid secretion in pylorus ligated rats (conclusion)” value (from here on “Inhibition effect”) in series [2] (20 mg/kg) is “do not show inhibition effect”.

Turning to `COCCCOc1ccnc(C[S+]([O-])c2nc3cc4c(cc3[nH]2)OCC4)c1C` (stereo not drawn) [Compound 1, 2-[[4-(3-methoxylpropoxy)-3-methylpyridin-2-yl]methylsulfinyl]-6,7-dihydro-3H-benzofuro[5,6-d]imidazole], in series [1] (20 mg/kg), the “Protection effect on reflux esophagitis” value is reported as “good protection effects on esophagus”. Further, the “In vivo pharmacokinetic properties (conclusion)” value in series [3] (rat, in vivo) is on record as “good in vivo pharmacokinetic properties”. Moreover, the “Inhibition effect” value in series [2] (20 mg/kg) is reported as “significant inhibition effect”.

With `COCCCOc1ccnc(C[S@@+]([O-])c2nc3cc4c(cc3[nH]2)OCC4)c1C` [Compound 30 (sodium salt), (R)-2-[[[4-(3-methoxylpropoxy)-3-methyl-2-pyridyl]methyl]sulfinyl]-6,7-dihydro-3H-benzofuro[5,6-d]imidazole sodium], in series [3] (setting [4]), the Vd turned out to be 0.394 L/kg, the clearance was 26.5 mL/min/kg and the half-life is 16.5 min. Further, in series [3] (setting [5]), the AUC(0-inf) amounted to 1260 ng·h/mL, the CL came out at 83.5 mL/min/kg, the peak concentration (Cmax) was 3250 ng/mL and the time to peak (Tmax) fell in the range of 4.98 to 15 min. In addition, in series [3] (setting [5]), the bioavailability was 39.3%. Also, in series [2] (setting [6]), the Gastric juice volume is 3.60 ± 1.30 mL and the “Volume of supernatant of gastric juice” value stood at 2.87 ± 1.17 mL. In series [2] (setting [7]), the “Acidity degree (pH value)” value was 6.08 pH value, the Total acid output is 0.0076 mmol/h and the Total acidity degree was found to be 17.21 mmol/L.

Compound `COc1c(C)cnc(C[S+]([O-])c2nc3cc4c(cc3[nH]2)OCO4)c1C` (stereo not drawn) [Compound 81, reference compound] registered an Esophagitis index in series [1] (20 mg/kg through duodenum, 5 h) of 0.83 ± 1.60. In series [1] (20 mg/kg), the “Protection effect on reflux esophagitis” value is given as “no protection effect”. In addition, the Injury status result in series [1] (individual rats, 20 mg/kg through duodenum, 5 h, 20 mg/kg) is recorded as “Normal”. Also, the Esophagus injury score was 0 (2×) and 1 (1 score for injury area of 1-25%) in series [1] (setting [8]); 4 (4 scores for injury area exceeding 75% or perforation) and 0 (2×) in series [1] (setting [9]). The Total acidity degree in series [2] (Table 5, 20 mg/kg, comparison with Compound 81 as control) came to 71.27 ± 16.51 mmol/L.

In the case of `COCCCOc1ccnc(C[S@@+]([O-])c2nc3cc4c(cc3[nH]2)OCC4)c1C` [Compound 30, (R)-2-[[[4-(3-methoxylpropoxy)-3-methyl-2-pyridyl]methyl]sulfinyl]-6,7-dihydro-3H-benzofuro[5,6-d]imidazole], in series [3] (rats, Tables 8 and 9), the “In vivo pharmacokinetic properties (conclusion)” value was “good in vivo pharmacokinetic properties”.

For the compound `COCCCOc1ccnc(C[S@+]([O-])c2nc3cc4c(cc3[nH]2)OCC4)c1C` [Compound 29, (S)-2-[[[4-(3-methoxylpropoxy)-3-methyl-2-pyridyl]methyl]sulfinyl]-6,7-dihydro-3H-benzofuro[5,6-d]imidazole], the clearance in series [3] (male, Wistar, rat, in vivo, rats, I.V, 5 mg/kg, read-out: CL (converted)) was 21.4 mL/min/kg. Further, the half-life in series [3] (male, Wistar, rat, in vivo, rats, I.V, 5 mg/kg, read-out: T½ (converted)) is 13.4 min. In addition, in series [3] (male, Wistar, rat, in vivo, rats, I.V, 5 mg/kg, read-out: Vss), the Vd came out at 0.289 L/kg. In series [3] (male, Wistar, rat, in vivo, po, rats, P.O 5 mg/kg vs I.V 5 mg/kg, read-out: F % (absolute bioavailability)), the bioavailability was 49.2%. Besides, in series [3] (male, Wistar, rat, in vivo, po, rats, P.O, 5 mg/kg, read-out: AUCinf), the AUC(0-inf) came out at 1740 ng·h/mL. The peak concentration (Cmax) in series [3] (male, Wistar, rat, in vivo, po, rats, P.O, 5 mg/kg, read-out: Cmax) amounted to 5780 ng/mL. Further, the Tmax in series [3] (male, Wistar, rat, in vivo, po, rats, P.O, 5 mg/kg, read-out: Tmax) amounted to 4.98 min. The “apparent oral clearance (CL/F)” value in series [3] (rats, P.O, 5 mg/kg) was 53.77 mL/min/kg. Moreover, the “In vivo pharmacokinetic properties (conclusion)” value in series [3] (rats, Tables 8 and 9) is reported as “good in vivo pharmacokinetic properties”. Also, in series [2] (setting [6]), the Gastric juice volume stood at 3.43 ± 1.11 mL and the “Volume of supernatant of gastric juice” value amounted to 2.70 ± 1.04 mL. In series [2] (setting [7]), the “Acidity degree (pH value)” value was determined as 3.75 pH value, the Total acid output is 0.0178 mmol/h and the Total acidity degree is 37.85 mmol/L.

`COc1c(C)cnc(C[S+]([O-])c2nc3cc4[nH]cnc4cc3[nH]2)c1C` (stereo not drawn) [Compound 8, 2-[(3,5-dimethyl-4-methoxylpyridin-2-yl)methylsulfinyl]-1H,5H-imidazo[5,4-f]benzo[d]imidazole]: in series [2] (20 mg/kg), the “Inhibition effect” value is “do not show inhibition effect”. In series [2] (setting [10]), this compound registered a Gastric juice volume of 6.10 mL, a Total acid output of 0.1242 mmol/h and a Total acidity degree of 120.92 mmol/L. For the same compound, in series [2] (setting [11]), the “Acidity degree (pH value)” value came to 1.71 pH value.

As to `COCCCOc1ccnc(C[S+]([O-])c2nc3cc4c(cc3[nH]2)OCCO4)c1C` (stereo not drawn) [Compound 6 (sodium salt)], in series [1] (20 mg/kg through duodenum, 5 h), the Esophagitis index amounted to 3.00 ± 1.27. Also, the Esophagus injury score in series [1] (setting [8]) is 4 (4 scores for injury area exceeding 75% or perforation) and 2 (2 scores for injury area of 25-50%) and 1 (1 score for injury area of 1-25%). In addition, in series [1] (setting [9]), the Esophagus injury score was 3 (3 scores for injury area of 50-75%) and 4 (4 scores for injury area exceeding 75% or perforation) (2×). In series [2] (setting [10]), this compound returned a Gastric juice volume of 10.28 mL, a Total acid output of 0.0807 mmol/h and a Total acidity degree of 103.16 mmol/L. In addition, the “Acidity degree (pH value)” value in series [2] (setting [11]) was determined as 1.82 pH value.
